In patent US4151041A, “Process for production of maltopentaose and maltohexaose” (Meiji Seika Kaisha, Ltd., priority 1976, dated 1979):

Experiments:
[1] = tested on: Klebsiella pneumoniae; assay: paper disc-plate method, combination with SF-1130-x1 substance; assay type: cell-based; conditions: in combination with SF-1130-x1, Klebsiella pneumoniae
[2] = tested on: test microorganism; assay: paper disc-plate method, test microorganisms in general; assay type: cell-based; conditions: for effect on antibacterial activity of the SF-1130-x2 substance: 1.25 mg/cc in upper plate layer, with SF-1130-x2; for antibacterial activity in themselves: alone, under the Table 4 testing conditions; for effect on antibacterial activity of the SF-1130-x1 substance: in combination with SF-1130-x1; for effect on antibacterial activity of the SF-1130-x substance: with SF-1130-x substance
Description: The test was conducted by a conventional paper disc-plate method. Thus, the SF-1130-x2 substance was dissolved in distilled water at a concentration of 1 mg/cc or 2 mg/cc, and with the test solutions so prepared were impregnated paper discs made of filter paper 8 mm in diameter which were subsequently air-dried. These paper discs were placed on an upper plate layer of the known mycin-assay incubation medium comprising 0.5% peptone, 0.3% meat extract and 1.5% agar (pH 6) which contained the test microorganism to be incubated therein and which was laid over the lower layer of agar medium in the assaying dish. The incubation was made at a temperature of 37° C. overnight, and subsequently the diameters of the inhibition zones formed around the paper discs were measured. These tests were repeated in the same manner as above but with the additional incorporation of 1.25 mg/cc of maltopentaose or maltohexaose into the upper plate layer of the micin-assay incubation medium. […] Control testing was also conducted in which the antibacterial potency of the SF-1130-x2 substance alone was estimated in the absence of maltopentaose or maltohexaose.

[3] = in vitro antimicrobial / antibacterial activity (general statement); assay type: cell-based; conditions: for in vitro antimicrobial activity: in themselves
[4] = tested on: mice infected with ascites tumor of "Sarcoma 180"; assay: cellular immunity test according to the delayed skin reaction technique; assay type: in vivo, ICR-JCL mice (male); conditions: for adjuvant effect on immuno-potentiating activity of SF-1130-x substance: with SF-1130-x substance
Description: The test was carried out by the following procedure: A group of ICR-JCL mice (male) having an average body weight of 31.58±4g (8 weeks old) (six mice per group) were inoculated with ascites tumor of "Sarcoma 180". 24 hours after the inoculation of the tumor cells, each of the drug samples to be tested was subcutaneously administered once into the mice. Two days after the inoculation an ethanolic solution of 5% picryl chloride was applied to the hair-shaved abdomens of mice to establish the sensitization. Subsequently, each drug sample under test was subcutaneously administered once a day for four successive days. Nine days after the inoculation, a solution of 1% picryl chloride in olive oil was applied to the two sides of both ears of mice to establish the secondary sensitization. 24 hours after the secondary sensitization, the degree (%) of increase in thickness of the ears was evaluated for the test mice. The extent of the delayed skin reaction can be assessed from the percentage increase.

[5] = tested on: Staphylococcus aureus Smith S-424; assay: host-defense stimulation in JCL-ICR mice against bacterial infection (survival, LD50 of bacteria); assay type: in vivo; conditions: living animals
Description: The test was conducted as follows: The crude, yellowish brown powder obtained in Example 1 was reprecipitated from water-ethanol and the reprecipitate was dissolved in a phosphate-buffered saline at ph 7.2. The resultant solution containing a mixture of maltopentaose and maltohexaose was intraperitoneally administered into a group of JCL-ICR mice (male) having an average body weight of 20g (4 weeks old) (eight mice per group) at a dosage of 100 mg/kg body or 20 mg/kg body. The administration was effected three times at an interval of 48 hours.
72 hours after the final administration, the mice were intraperitoneally inoculated with 0.5 ml/mouse of a cell dispersion of Staphylococcus aureus Smith S-424 strain which had been prepared by dilution of the incubated culture with physiological saline solution followed by addition of 5% mucin. The number of the mice that survived was counted during five days after the inoculation and the LD50 value of the bacterial cells (the number of the bacterial cells necessary to kill 50% of mice) calculated in each case. Control testing was also conducted where the treatment with the mixture of maltopentaose and maltohexaose was omitted.

[6] = solubility; assay type: physicochemical

Structure (SMILES)	effect on antibacterial activity of the SF-1130-x1 substance [1]	effect on antibacterial activity of the SF-1130-x2 substance [2]	antibacterial activity in themselves [2]	effect on antibacterial activity of the SF-1130-x1 substance [2]	effect on antibacterial activity of the SF-1130-x substance [2]	in vitro antibacterial activity [3]	in vitro antimicrobial activity [3]	Degree of increase in thickness (ears) ([4]; 200 mg/kg body, subcutaneous)	Percentage increase ([4]; 200 mg/kg body, subcutaneous, Control = 100.0) [%]	adjuvant effect on immuno-potentiating activity of SF-1130-x substance [4]	effect on host-defense system against bacterial infection [5]	solubility in acetone [6]	solubility in ethanol [6]	solubility in water [6]
OC[C@H]1O[C@H](O[C@H]2[C@H](O)[C@@H](O)[C@@H](O[C@H]3[C@H](O)[C@@H](O)[C@@H](O[C@H]4[C@H](O)[C@@H](O)[C@@H](O[C@H]5[C@H](O)[C@@H](O)[C@@H](O[C@H]6[C@H](O)[C@@H](O)C(O)O[C@@H]6CO)O[C@@H]5CO)O[C@@H]4CO)O[C@@H]3CO)O[C@@H]2CO)[C@H](O)[C@@H](O)[C@@H]1O (some centres unmarked) [maltohexaose]	improvement in the antibacterial activity is not observed	improves the antibacterial activity	no antibacterial activity	generally improves the antibacterial activity	improving the antibacterial activity	no in vitro antibacterial activity	no in vitro antimicrobial activity	4.7 ± 0.988 ×10^ -3 cm	87.0	adjuvant effect of increasing the immuno-potentiating activity	may stimulate the host-defense system	insoluble	insoluble	readily soluble
OC[C@H]1O[C@H](O[C@H]2[C@H](O)[C@@H](O)[C@@H](O[C@H]3[C@H](O)[C@@H](O)[C@@H](O[C@H]4[C@H](O)[C@@H](O)[C@@H](O[C@H]5[C@H](O)[C@@H](O)C(O)O[C@@H]5CO)O[C@@H]4CO)O[C@@H]3CO)O[C@@H]2CO)[C@H](O)[C@@H](O)[C@@H]1O (some centres unmarked) [maltopentaose]	improvement in the antibacterial activity is not observed	improves the antibacterial activity	no antibacterial activity	generally improves the antibacterial activity	improving the antibacterial activity	no in vitro antibacterial activity	no in vitro antimicrobial activity			adjuvant effect of increasing the immuno-potentiating activity	may stimulate the host-defense system	insoluble	insoluble	readily soluble
